We go through eight molecules from US20030186464A1, “Surface plasmon resonance methods” (priority 2002, published 2003).

Read-outs that look alike come from different tables or passages of the source.

Experiment [1] deals with T1, human interleukin-1 receptor type 1 (Homo sapiens, UniProt P14778).
T1 construct: soluble human II-1 R was allowed to flow over the surface; made in house; host or cells: baculovirus-infected TN-5B1-4 insect cells (High Five)
T1 sequence (P14778 18-336 limits assumed): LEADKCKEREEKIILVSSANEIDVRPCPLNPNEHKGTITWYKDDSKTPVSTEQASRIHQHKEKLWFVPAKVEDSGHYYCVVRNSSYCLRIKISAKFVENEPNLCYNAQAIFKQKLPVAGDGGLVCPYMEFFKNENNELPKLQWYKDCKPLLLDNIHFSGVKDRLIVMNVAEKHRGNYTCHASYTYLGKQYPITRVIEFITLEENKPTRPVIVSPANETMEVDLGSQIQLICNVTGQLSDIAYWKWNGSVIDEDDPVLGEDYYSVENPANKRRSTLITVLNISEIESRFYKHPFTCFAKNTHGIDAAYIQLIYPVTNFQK
Briefly: SPR inhibition of binding of soluble IL-1 R to an immobilized peptide ligand (Examples 12-13). Particulars: for IC50: inhibition of binding of IL-1 R to the immobilized peptide […]. As to the method: A CM5 sensor chip (Biacore-BR-1000-14) is docked in a Biacore 2000 SPR device. The chip is then normalized using standard Biacore protocol with 70% glycerol. The chip is next equilibrated in PBS for approximately 1 hr at 20,L/min flow rate. The dextran surface of the chip is activated through an NHS/EDC coupling. This coupling is done using an amine coupling kit (Biacore—BR-100-50) containing N-hydroxysuccinimide (NHS 11.5 mg/mL) and N-ethyl-N′-(3-dimethylaminopropyl) carbodiimide hydrochloride (EDC 75 mg/mL). The two reagents are mixed in a 1:1 ratio and 35 μL of the mixture are injected at 5 μL/min. The activated chip is then modified with a cysteine reactive group, to enable labeling of the CM5 chip with cysteine chemistry. A solution of 100 μM MTSL in PBS is injected at 2 μL/min for 10 min over the activated cell.
A peptide that is a nanomolar inhibitor for the protein of interest was synthesized at Synpep, to include a cysteine residue at the N-terminus. This peptide was brought up to a 100 μM solution in PBS. This solution is then injected over the activated cell at 2 μL/min for 10 min. After injection one measures the change in RUs by marking the RUs at t=0 and t=final and subtracting. This gives the total RU change, which is related to the total mass of peptide successfully coupled to the CM5 surface. The sensorgram is then altered to flow across all four cells on the CM5 chip at 5 μL/min PBS. A solution of 1 M ethanolamine hydrochloride-NaOH pH 8.5 (Amine coupling kit, Biacore—BR-100-50) is injected at […] for 7 min. The peptide is immobilized at a density of 40 fmol/mm^2. The chip is equilibrated overnight in PBS+0.05% azide at 20 μL/min.
IL-1 R is expressed in baculovirus-infected TN-5B1-4 insect cells (High Five) and purified using standard procedures. To determine an appropriate constant concentration of protein to use, a protein titration is first performed. A dilution series of the protein is typically performed to produce seven protein solutions having final concentrations of from 300 nM, 100 nM, 33 nM, 11 nM, 3.7 nM, 1.2 nM, and 0.41 nM in PBS+0.05% azide, and an eighth solution is used as a PBS-only baseline. The protein solutions are injected from lowest concentration to highest at 40 μL/min for 1 min. The SPR software method includes a 1 min wash before injection, the injection and then a 3 min wash after the injection.
These dilutions series are analyzed by BIAevaluation software version 3.0. Sensorgrams are plotted for protein binding to the immobilized peptide cell. The sensorgrams are modified by subtracting the sensorgrams for the appropriate protein dilutions over cell 1 (a blank cell). This subtraction step removes any RU changes that might occur due to nonspecific interactions between the protein and the chip itself or refractive changes in the buffer. Finally, the eight sensorgrams produced from the protein dilution series are zeroed at the average of their starting RUs. Then the sensorgram produced by injecting PBS only is subtracted to reveal the final sensorgrams used to determine relative binding.
To determine KdSPR for the protein, the protein concentration is plotted on the X-axis, while the fraction bound at the plateau of the injection is plotted on the Y-axis. The curve is then analyzed via nonlinear regression analysis (Kaleidagraph, Synergy Software). […] One wants to keep protein constant and non-saturated to be assured of not having an excess of protein in solution. For this protein, 30 nM was chosen. […]

The target in experiment [2] is T2, immobilized IL-2 (Homo sapiens, UniProt P60568).
T2 construct: made in house; host or cells: E. coli
Briefly: Double ligand SPR on immobilized interleukin-2 (Examples 9-11). Type of experiment: binding. The procedure: A CM5 sensor chip (Biacore-BR-1000-14) is docked in a Biacore 2000 SPR device and normalized using a standard Biacore protocol with 70% glycerol. The chip is next equilibrated in PBS for approximately 1 hr at a 20 μL/min flow rate. The dextran surface of the chip is activated through an NHS/EDC coupling. This coupling is done using an amine coupling kit (Biacore—BR-100-50) containing N-hydroxysuccinimide (NHS 11.5 mg/mL) and N-ethyl-N′-(3-dimethylaminopropyl) carbodiimide hydrochloride (EDC 75 mg/mL). First, the two reagents are mixed in a 1:1 ratio and then 35 μL of the mixture are injected at 5 μL/min. The chip is activated one flow cell at a time, and that flow cell is subsequently labeled with protein.
IL-2 is expressed in E. coli cells and purified using standard procedures. Protein is then concentrated to 100 μM and the buffer is exchanged to 100 mM MES pH 5.75 (Nap-5 column, Pierce). A sensorgram is then run over the activated flow cell at 2,L/min of PBS. The IL-2 solution is then injected at 2 μL/min for 10 min. After injection the change in RUs is measured by marking the RUs at t=0 and t=final and subtracting. This gives the total RU change, which is related to the total mass of protein successfully coupled to the CM5 surface. The total mass will later be used to determine stoichiometry of binding. This procedure is then repeated with another arbitrary protein to create a measure for nonspecific binding. The arbitrary protein is immobilized on an adjacent cell. […] The sensorgram is then altered to flow across all four cells on the CM5 chip at 5 μL/min PBS. A solution of 1 M ethanolamine hydrochloride-NaOH pH 8.5 (Amine coupling kit, Biacore-BR-100-50) is injected at 5 μL/min for 7 min. Proteins are immobilized at densities of 100-160 fmol/mm^2. The chip is equilibrated overnight in PBS+0.05% azide+2% DMSO at 20 μL/min.
In this experiment, variable concentrations of a compound are tested at a constant concentration of another compound. The compound held constant is 2c, for example (structure shown in Example 2). To determine appropriate constant concentrations for 2c, a compound titration is first performed. Dilution series of the compounds are typically performed to produce seven solutions having final compound concentrations of 30 mM, 10 mM, 3.3 mM, 1.1 mM, 0.37 mM, 0.12 mM, and 0.041 mM; an eighth solution is a DMSO-only baseline. The compounds are then diluted into PBS+0.05% azide to final concentrations of 300 μM, 100 μM, 33 μM, 11 μM, 3.7 μM, 1.2 μM, 0.41 μM. The compound solutions are injected from lowest concentration to highest at 40 μL/min for 1 min. The SPR software method includes a 1 min wash before injection, the injection and then a 3 min wash after the injection.
These dilution series are analyzed by BIAevaluation software version 3.0. Sensorgrams are plotted for compound binding to the IL-2 labeled cell of the chip. The sensorgrams are modified by subtracting the sensorgrams for the appropriate compound dilutions over cell 1 (a blank cell). This subtraction step removes any RU changes that might occur due to non-specific interactions between the compound and the chip itself or refractive changes in the buffer. Finally, the eight sensorgrams produced from the compound dilution series are zeroed at the average of their starting RUs. Then the sensorgram produced by injecting DMSO only is subtracted to reveal the final sensorgrams used to determine relative binding.
To determine KdSPR for the compound, the compound concentration is plotted on the X-axis, while the fraction bound at the plateau of the injection is plotted on the Y-axis. The curve is then analyzed via non-linear regression analysis (Kaleidagraph, Synergy Software). […] The concentration chosen is where the RUs remain constant at the top of the binding curve and thus the IL-2:2c ratio is 1. For 2c, this concentration is 100 μM.
A second compound is then run, this time in both the presence and absence of 2c. […]

T2 sequence (P60568 21-153): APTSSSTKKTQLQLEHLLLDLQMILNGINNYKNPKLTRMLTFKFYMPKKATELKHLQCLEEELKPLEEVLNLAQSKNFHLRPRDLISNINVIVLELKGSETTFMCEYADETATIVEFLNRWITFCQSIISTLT

Usually IC50 stands for the concentration at which inhibition is half-maximal. With `NC(=O)Cc1cccc(NC(=O)c2cccc(NC(=O)c3cc4cccc(O)c4cc3O)c2)c1` [Compound 24], in experiment [1], the IC50 was 95 µM.

For `COCC(=O)NC1CSc2ccccc2C1=O` (stereo not shown) [Compound 20], the “Kd,SPR IL-2” value in experiment [2] (immobilized IL-2, no other compound) is recorded as “Inactive”.

For `NC(=O)CC[C@H](NC(=O)[C@H](Cc1ccc(OP(=O)(O)O)cc1)NC(=O)[C@H](Cc1ccc2ccccc2c1)NC(=O)Cc1ccc(O)cc1)C(=O)N1CCN(C(=O)Cc2ccc(O)cc2)CC1` [Compound 21], in experiment [1], the IC50 was found to be 10.5 µM.

Turning to `COCCNC(=O)[C@@H]1CCCN1C(=O)c1cc2ccccc2s1` [Compound 1], the Kd is around 175 µM in experiment [2] (FIG. 7 sensorgrams, 0-500 μM of compound over immobilized IL-2, read-out: apparent Kd) and 210 µM in experiment [2] (dose-response plot of FIG. 9, absence of 2c, read-out: Kd for binding IL-2). The IC50 in experiment [2] (constant 50 μM of 2c, immobilized IL-2, FIG. 9, read-out: IC50 inhibiting the binding of 2c) stood at 185 µM.

As to `NC(=O)c1cccc(NC(=O)CCC(=O)NCCc2c[nH]c3ccccc23)c1` [Compound 22], the IC50SPR entry in experiment [1] (inhibition of binding of IL-1 R to the immobilized peptide CETPFTWEESNAYYWQPYALPL) is recorded as “Inactive”.

Take `NC(=O)Cc1ccc(NC(=O)NCc2ccc(C3=CN=C(N)NC3)cc2)cc1` [Compound 25]: the IC50 in experiment [1] is 240 µM.

Turning to `NC(=O)c1cccc(NC(=O)CCC(=O)Nc2ccc3[nH]ccc3c2)c1` [Compound 23], in experiment [1], the IC50 amounted to 560 µM.

On to `N=C(N)N[C@@H](C(=O)NCC(=O)N1CCC(c2cc(-c3ccc(O)cc3Cl)[nH]n2)CC1)C1CCCCC1` [Compound 16], for which, in experiment [2] (Example 11, immobilized interleukin-2, read-out: apparent Kd in SPR experiments), the Kd amounted to 5 µM.
